Laboratory results taken from PMC8291035 (Biochemical pharmacology, 2021).

Target: ABCB1 (P-glycoprotein, P-gp, MDR1) (Homo sapiens, UniProt P08183)
Assay: cell-based

Chain of ABCB1 (P-glycoprotein, P-gp, MDR1) (P08183 whole entry): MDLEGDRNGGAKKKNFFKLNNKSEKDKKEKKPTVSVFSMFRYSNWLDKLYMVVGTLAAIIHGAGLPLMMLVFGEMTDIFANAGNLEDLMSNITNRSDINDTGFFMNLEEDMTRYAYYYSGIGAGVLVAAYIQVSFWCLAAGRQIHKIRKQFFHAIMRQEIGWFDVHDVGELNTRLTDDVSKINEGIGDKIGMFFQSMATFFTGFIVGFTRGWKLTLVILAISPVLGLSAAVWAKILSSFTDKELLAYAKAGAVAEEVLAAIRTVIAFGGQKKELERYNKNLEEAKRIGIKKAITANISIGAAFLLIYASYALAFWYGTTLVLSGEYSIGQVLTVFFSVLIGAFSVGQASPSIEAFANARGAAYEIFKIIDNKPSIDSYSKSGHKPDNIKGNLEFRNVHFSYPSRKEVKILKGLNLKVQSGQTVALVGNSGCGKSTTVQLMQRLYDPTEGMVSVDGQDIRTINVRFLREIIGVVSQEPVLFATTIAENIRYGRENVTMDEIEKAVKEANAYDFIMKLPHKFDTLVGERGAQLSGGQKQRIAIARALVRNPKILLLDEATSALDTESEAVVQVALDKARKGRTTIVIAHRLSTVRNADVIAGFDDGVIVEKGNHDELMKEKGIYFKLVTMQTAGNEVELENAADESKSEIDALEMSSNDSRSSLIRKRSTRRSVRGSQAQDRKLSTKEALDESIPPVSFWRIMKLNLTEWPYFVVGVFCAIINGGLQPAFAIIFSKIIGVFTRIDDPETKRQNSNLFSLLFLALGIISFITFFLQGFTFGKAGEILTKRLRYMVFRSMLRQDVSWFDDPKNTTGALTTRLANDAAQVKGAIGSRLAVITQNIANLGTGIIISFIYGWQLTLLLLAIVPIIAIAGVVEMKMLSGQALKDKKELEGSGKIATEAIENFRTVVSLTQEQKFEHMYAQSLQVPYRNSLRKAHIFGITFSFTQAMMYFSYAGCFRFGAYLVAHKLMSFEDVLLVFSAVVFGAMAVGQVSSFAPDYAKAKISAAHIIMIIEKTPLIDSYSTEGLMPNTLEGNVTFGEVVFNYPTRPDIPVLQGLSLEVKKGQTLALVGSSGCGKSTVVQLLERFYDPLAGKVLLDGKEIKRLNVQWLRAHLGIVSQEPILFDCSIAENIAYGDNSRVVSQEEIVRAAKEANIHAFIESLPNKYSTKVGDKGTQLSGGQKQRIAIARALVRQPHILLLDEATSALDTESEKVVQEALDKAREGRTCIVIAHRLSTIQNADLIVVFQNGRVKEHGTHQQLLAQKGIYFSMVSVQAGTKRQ

IC50: ~2000 nM
Compound: C=CC(=O)Nc1cc(Nc2nccc(-c3cn(C4CC4)c4ccccc34)n2)c(OC)cc1N(C)CCN(C)C [almonertinib]
